Several values for one entry are separate records, joined by “and”; a condition that tells them apart may be missing. Equal values may be shown once.
Experiments:
EaPycC = biological target: T1, EaPycC (Elizabethkingia anophelis, UniProt A0AAT8XUA8); assay: LC-MS/MS; format: biochemical; details: 0.5 mM CTP, 1 μM enzyme, 25 °C overnight
T1 construct: full-length, thioredoxin-His tag cut by TEV, extra N-terminal Gly, E. coli BL21(DE3); homodimer
T1 sequence (A0AAT8XUA8 2-342): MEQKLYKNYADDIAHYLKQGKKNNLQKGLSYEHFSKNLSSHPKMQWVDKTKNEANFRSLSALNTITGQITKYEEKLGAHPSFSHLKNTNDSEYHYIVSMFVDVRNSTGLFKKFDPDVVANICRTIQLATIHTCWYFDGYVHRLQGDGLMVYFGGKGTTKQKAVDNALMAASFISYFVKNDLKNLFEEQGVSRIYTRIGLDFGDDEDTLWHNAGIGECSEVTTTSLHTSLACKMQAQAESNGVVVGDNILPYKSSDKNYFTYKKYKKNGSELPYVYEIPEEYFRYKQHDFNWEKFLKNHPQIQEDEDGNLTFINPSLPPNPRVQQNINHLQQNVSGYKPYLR

NpPycTIRCNBD = NpPycTIRCNBD (Novosphingobium pentaromativorans, UniProt A0AAT8XUA9); assay: isothermal titration calorimetry; format: binding
Text: isothermal titration calorimetry on NpPycTIRCNBD

[1] = biological target: SmPycTIRCNBD (Stenotrophomonas maltophilia); assay: isothermal titration calorimetry; format: binding
Text: isothermal titration calorimetry on SmPycTIRCNBD

PsPycTIRCNBD = biological target: T2, PsPycTIRCNBD (Pseudovibrio sp. W64, UniProt A0ACD6BAZ5); assay: isothermal titration calorimetry; format: binding
T2 construct: dimer with cUMP
Text: isothermal titration calorimetry on PsPycTIRCNBD

AhPycTIRCNBD = biological target: T3, AhPycTIRCNBD (Acinetobacter haemolyticus, UniProt N9FD06); assay: isothermal titration calorimetry; format: binding
T3 construct: gene F927_00926
Text: isothermal titration calorimetry on AhPycTIRCNBD

AnPycC = biological target: T4, AnPycC (Anabaena sp. CA = ATCC 33047, UniProt A0ACD6BAV8); assay: LC-MS/MS; format: biochemical; details: 0.5 mM UTP, 1 μM enzyme, pH 9.0, 25 °C overnight
T4 construct: full-length, thioredoxin-His tag cut by TEV, extra N-terminal Gly, E. coli BL21(DE3); monomer in solution, dimer in crystal

[2] = biological target: cUMP-bound PycTIR (gel-filtration data); assay: SEC; gel filtration of cUMP-bound PycTIR (Supplementary Fig. 10)

T4 sequence (A0ACD6BAV8 1-280): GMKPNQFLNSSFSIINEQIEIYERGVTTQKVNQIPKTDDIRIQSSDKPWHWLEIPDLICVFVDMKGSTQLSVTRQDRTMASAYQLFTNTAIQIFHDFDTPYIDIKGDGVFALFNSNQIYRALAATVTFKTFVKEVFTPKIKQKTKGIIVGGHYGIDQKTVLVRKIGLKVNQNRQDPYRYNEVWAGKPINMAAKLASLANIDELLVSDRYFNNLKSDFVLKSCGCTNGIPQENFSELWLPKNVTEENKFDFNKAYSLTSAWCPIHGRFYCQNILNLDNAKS
T2 sequence (A0ACD6BAZ5 entry or part of it): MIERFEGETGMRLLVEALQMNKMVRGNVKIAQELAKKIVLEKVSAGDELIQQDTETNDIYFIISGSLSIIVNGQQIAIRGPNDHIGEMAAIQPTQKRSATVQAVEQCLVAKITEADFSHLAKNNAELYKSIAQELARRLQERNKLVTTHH
T3 sequence (N9FD06 entry or part of it): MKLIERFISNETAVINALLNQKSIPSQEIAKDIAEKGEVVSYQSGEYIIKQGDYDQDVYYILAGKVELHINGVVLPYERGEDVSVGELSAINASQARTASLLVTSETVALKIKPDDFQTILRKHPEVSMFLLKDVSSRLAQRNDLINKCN
NpPycTIRCNBD, sequence (A0AAT8XUA9 entry or part of it): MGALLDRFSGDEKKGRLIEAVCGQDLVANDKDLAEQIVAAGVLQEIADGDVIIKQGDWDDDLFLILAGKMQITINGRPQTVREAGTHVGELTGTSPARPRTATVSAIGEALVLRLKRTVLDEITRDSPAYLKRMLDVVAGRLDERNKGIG

With `Nc1ccn([C@@H]2O[C@@H]3COP(=O)(O)O[C@H]3[C@H]2O)c(=O)n1` [cCMP] the LC-MS/MS (EaPycC) was “an elution peak corresponding to the cCMP product was detected”.
With `O=c1ccn([C@@H]2O[C@@H]3COP(=O)(O)O[C@H]3[C@H]2O)c(=O)[nH]1` [cUMP] the Kd (NpPycTIRCNBD) was 1 nM, the Kd [1] was 270 nM and the Kd (PsPycTIRCNBD) was 1 nM. The Kd (AhPycTIRCNBD) was 820 nM and the LC-MS/MS (AnPycC) was “The production of cUMP by purified AnPycC proteins was confirmed by LC-MS/MS”.
With cUMP-bound PycTIR (gel-filtration data) the stoichiometry N [2] was 2 and 4.

— publication PMC11224242, “Structural and functional characterization of cyclic pyrimidine-regulated anti-phage system” (Nature Communications, 2024)
